Measurements taken from patent US6495313B2, “Silver halide color photographic light-sensitive material” (Fuji Photo Film Co., Ltd., priority 1997, dated 2002).

Assay: pKa of cyan coupler by pH titration (half-neutralization point)
Type: physicochemical
Settings: tetrahydrofuran/water 6/4 by volume, solvent mixture of tetrahydrofuran and water 6/4 by volume
Experimental: The pKa of the coupler can be easily determined by obtaining a pH of a point where neutralization is performed just half on a pH titration curve measured in a solvent mixture of tetrahydrofuran and water in a ratio of 6/4 by volume.

Structure (SMILES): CCCCCCCCCCCCCCCCNC(=O)c1cc(OCCS(C)(=O)=O)c2ccccc2c1O [Sample C-4, reference compound]
- pKa: 10.3

Structure (SMILES): CCCCCCCCCCCCCCOc1ccccc1NC(=O)c1cc(OC(C)=O)c2ccccc2c1O [Sample C-6]
- pKa: ≤ 8.7

Structure (SMILES): CCCCCCCCCCCCc1ccc(S(=O)(=O)c2cc(C(=O)NCCc3ccccc3NC(C)=O)c(O)c3ccccc23)cc1 [Sample C-8]
- pKa: 6.02
